Laboratory results from patent publication EP0837870B1, “SYNTHETIC MODIFICATION TO SPINOSYN COMPOUNDS” (Dow AgroSciences LLC, priority 1995, dated 1997).

Tests used:
Format in all cases: in vivo
[1] = system: Stomoxys calcitrans (stable fly); assay: Adult stable fly test, serum-saturated dental wick; details: readings at 24 and 48 hours, which one is reported is not stated; for Percentage of ASF killed at 10 ppm: 10 ppm in bovine serum
Experimental: (§1) The compound to be evaluated was dissolved in 1 part acetone/1 part ethanol to provide a stock solution of the compound at a concentration of 5,000 ppm; this solution was shaken for 15 minutes on a sonicator. Portions of the stock solution were placed in 15 ml test tubes, and portions of bovine serum were added to provide the desired dilution of the test compound. A dental wick was placed in each test tube and the serum allowed to saturate the wick.
For the adult stable fly test, the saturated wick was placed on a filter paper in a petri dish, and approximately 10 chilled live, hungry stable flies were placed on the center of the dish bottom. The dish was covered and allowed to incubate at 27°C and 60% relative humidity for 48 hours. Mortality readings were made at each of 24 and 48 hours, and adjusted for any mortality in the vehicle control to determine percent efficacy against adult stable fly.

[2] = system: Phormia regina (blow fly); assay: Blow fly larvae test, serum-saturated dental wick; details: 24 and 48 hours, which one is reported is not stated; for Percentage of LBF killed at 10 ppm: 10 ppm in bovine serum; for Percentage of LBF killed at 100 ppm: 100 ppm in bovine serum
Experimental: as §1
For the blow fly test, approximately 20 blow fly larvae were placed onto the top center of the saturated dental wick, and the test tube was plugged with cotton and incubated at 27°C and 70% humidity for 24 and 48 hours. Larval mortality counts were then made, and adjusted for any mortality in the vehicle control, to determine percent efficacy against blow fly.

[3] = system: tobacco budworm (Heliothis virescens); assay: Activity against tobacco budworm (TBW), sprayed diet cups with eggs; details: for mortality at 400 µg/mL: Heliothis virescens, 144 h
Experimental: (§2) In conducting evaluations of insecticidal activity, each test compound was formulated as a 400 ppm solution, and this solution was then diluted with water to give lesser concentrations. The 400 ppm solution was prepared by combining 19.2 mL of .05% solution of Tween 20 (polyoxyethylene (20) sorbitan monolaurate) in water with a solution of 8 mg of the compound in .8 mL of acetone/EtOH (9/1).
Activity against tobacco budworm (Heliothis virescens) was evaluated as follows. A general purpose lepidoptera artificial diet was diluted to half strength with a 5% non nutritive agar. 8 mL of this diet material was dispensed into each one ounce diet cup. One hour prior to treatment 18 to 20 eggs were dispensed onto the diet surface. The cups were then sprayed with formulated material through a flat-fan nozzle. […] Treated cups were air dried prior to sealing with plastic caps. The cups were held for 6 days at room temperature. Activity was then rated based on the total number of live and dead larvae, and on the size of live larvae.

[4] = system: two spotted spider mite (Tetranychus urticae); assay: Activity against two spotted spider mite (TSSM), sprayed infested squash plants; details: RATE 400 (ppm), three days after treatment; for % MORTALITY: 4320 min; for mortality at 400 µg/mL: Tetranychus urticae, 72 h
Experimental: as §2
Activity against cotton aphid (Aphis gossypii) and two spotted spider mite (Tetranychus urticae) was evaluated as follows. Golden crookneck squash plants were grown to the expanded cotyledon stage (about 6 to 8 days). The plants were infested with cotton aphids and two spotted spider mites 16 to 24 hours before application of the test material by transfer of infested foliage cut from a stock colony. Immediately prior to spray application of the test material the transfer foliage is removed from the squash plants. The test is run using concentrations of 400 ppm and 50 ppm. The plants are sprayed with test solution using an atomizing sprayer at 17 psi. Both surfaces of the leaves are covered until runoff, and then allowed to dry. Activity of each compound was determined three days after treatment. Activity was rated as a percent based on the mites/aphids present in plants sprayed with solvent alone.

[5] = system: beet armyworm (Spodoptera exiqua); assay: Activity against beet armyworm (BAW), sprayed diet cups with eggs
Experimental: as §2
Activity against beet armyworm (Spodoptera exiqua) was evaluated as follows. The test is run using concentrations of 400 ppm and 50 ppm. A general purpose lepidoptera artificial diet was diluted to half strength with a 5% non nutritive agar. 8 mL of this diet material was dispensed into one ounce diet cups. One hour prior to treatment, 35 to 40 eggs were dispensed onto the diet surface. The cups were then sprayed with formulated material through a flat-fan nozzle. Treated cups were air dried prior to sealing with plastic caps. The cups were held for 6 days at room temperature. Activity was then rated based on the total number of live and dead larvae, and on the size of live larvae.

[6] = system: peanut root knot nematode (Meloidogyne arenaria); assay: Activity against peanut root knot nematode, sprayed sand with cucumber seeds; details: NEMA, RATE 400 (ppm), 10 to 12 days
Experimental: as §2
Activity against peanut root knot nematode (Meloidogyne arenaria) was evaluated as follows. Five untreated cucumber seeds are placed into the bottom of a clear one ounce cup, 20 g of clean white sand is added, and the cups were sprayed while rotating on a pedestal allowing 1.0 mL of a 400 ppm solution to be deposited on the sand. To each cup was dispensed 2.5 to 3.0 mL of deionized water containing 300 to 500 nematodes. The cups were held for 10 to 12 days in an environmental growth chamber at a temperature of 76 to 85°F and ambient humidity of 50 to 60%. After 10 to 12 days the cups were evaluated by inverting the cup and observing nematode mortality and feeding damage to the cucumber plants.

[7] = RATE 64 (unit not given), 8640 min

CCC1CCCC(OC2CCC(N(C)C)C(C)O2)C(C)C(=O)C2=CC3C4CC(OC5OC(C)C(OC)C(OC)C5OC)CC4[C@@H](Br)[C@H](OCCO)C3C2CC(=O)O1 (stereo partly drawn) [Example F1, (5R,6R)-5-(2-Hydroxyethoxy)-6-bromo Spinosyn A]
Percentage of ASF killed at 10 ppm [1]: 60% | Percentage of LBF killed at 10 ppm [2]: 90% | % MORTALITY ([3]; RATE 400 (ppm), 6 days): 100%

CCC1CCCC(OC2CCC(N(C)C)C(C)O2)C(C)C(=O)C2=CC3C4CC(OC5OC(C)C(OC)C(OC)C5OC)CC4[C@]4(C)O[C@@H]4C3C2CC(=O)O1 (stereo partly drawn) [Example F8b, (5R,6S)-Epoxy Spinosyn D]
Percentage of ASF killed at 10 ppm [1]: 100% | Percentage of LBF killed at 100 ppm [2]: 100% | % MORTALITY [4]: 90% | % MORTALITY ([3]; RATE 400 (ppm), 6 days): 100%

CC[C@H]1CCC[C@H](O[C@H]2CC[C@H](N(C)C)[C@@H](C)O2)[C@@H](C)C(=O)C2=C[C@H]3[C@@H]4C[C@H](O[C@@H]5O[C@@H](C)[C@H](OC)[C@@H](OC)[C@H]5OC)C[C@H]4[C@@H](O)[C@@H](O)[C@H]3[C@@H]2CC(=O)O1 [Example F2, (5S,6R)-5,6-Dihydroxy-5,6-dihydro Spinosyn A]
Percentage of ASF killed at 10 ppm [1]: <50% | Percentage of LBF killed at 10 ppm [2]: <50% | mortality at 400 µg/mL ([3]; RATE 400 (ppm), 6 days): 100%

CC[C@H]1CCC[C@H](O[C@H]2CC[C@H](N(C)C)[C@@H](C)O2)[C@@H](C)C(=O)C2=C[C@H]3[C@@H]4C[C@H](O[C@@H]5O[C@@H](C)[C@H](OC)[C@@H](OC)[C@H]5OC)C[C@H]4[C@H]4OC(=O)O[C@H]4[C@H]3[C@@H]2CC(=O)O1 [Example F3, (5S,6R)-Spinosyn A carbonate]
Percentage of ASF killed at 10 ppm [1]: <50% | Percentage of LBF killed at 10 ppm [2]: <50% | % MORTALITY [3, 7]: 24%

CC[C@H]1CCC[C@H](O)[C@@H](C)C(=O)C2=C[C@H]3[C@@H]4C[C@H](O[C@@H]5O[C@@H](C)[C@H](OC)[C@@H](OC)[C@H]5OC)C[C@H]4[C@@H](Br)[C@H](OCCO)[C@H]3[C@@H]2CC(=O)O1 [Example E1, (5R,6R)-5-(2-Hydroxyethoxy)-6-bromo Spinosyn A 17-Psa]
Percentage of LBF killed at 10 ppm [2]: <50% | mortality at 400 µg/mL [4]: 60% | mortality at 400 µg/mL ([3]; RATE 400 (ppm), 6 days): 100%

CC[C@H]1CCC[C@H](O[C@H]2CC[C@H](N(C)C)[C@@H](C)O2)[C@@H](C)C(=O)C2=C[C@H]3[C@@H]4C[C@H](O[C@@H]5O[C@@H](C)[C@H](OC)[C@@H](OC)[C@H]5OC)C[C@H]4[C@H](Br)[C@@H](OC(C)=O)[C@H]3[C@@H]2CC(=O)O1 [Example F4a, (5S,6S)-5-Acetoxy-6-bromo Spinosyn A]
Percentage of ASF killed at 10 ppm [1]: 90% | Percentage of LBF killed at 10 ppm [2]: <50% | mortality at 400 µg/mL ([3]; RATE 400 (ppm), 6 days): 100%

CCC1CCCC(OC2CCC(N(C)C)C(C)O2)C(C)C(=O)C2=CC3C4CC(OC5OC(C)C(OC)C(OC)C5OC)CC4[C@@H]4O[C@@H]4C3C2CC(=O)O1 (stereo partly drawn) [Example F7b, (5R,6S)-Epoxy Spinosyn A]
Percentage of ASF killed at 10 ppm [1]: 100% | Percentage of LBF killed at 10 ppm [2]: 100% | % MORTALITY ([3]; RATE 400 (ppm), 6 days): 100%

(5R,6R)-5,6-dibromo-4''-keto Spinosyn A [Example F11a]
% MORTALITY ([5]; RATE 56 (unit not given)): 80%

5,6-Dihydro Spinosyn A 17-Psa [Example F20]
% MORTALITY ([5]; RATE 400 (ppm), 6 days): 100%

CC[C@H]1CCC[C@H](O[C@H]2CC[C@H](N(C)C)[C@@H](C)O2)[C@@H](C)C(=O)C2=C[C@H]3[C@@H]4C[C@H](O[C@@H]5O[C@@H](C)[C@H](OC)[C@@H](OC)[C@H]5OC)C[C@H]4CC[C@H]3[C@@H]2CC(=O)O1 [Example F6, 5,6-Dihydro Spinosyn A]
Percentage of ASF killed at 10 ppm [1]: 100% | Percentage of LBF killed at 100 ppm [2]: 100% | mortality at 400 µg/mL [4]: 100% | % MORTALITY [3, 7]: 100%

CC[C@H]1CCC[C@H](O[C@H]2CC[C@H](N(C)C)[C@@H](C)O2)[C@@H](C)C(=O)[C@H]2C[C@@H]3[C@@H](CC[C@@H]4C[C@@H](O[C@@H]5O[C@@H](C)[C@H](OC)[C@@H](OC)[C@H]5OC)C[C@H]43)[C@@H]2CC(=O)O1 [Example D1, (14S)-5,6,13,14-Tetrahydro Spinosyn A]
Percentage of ASF killed at 10 ppm [1]: 100% | Percentage of LBF killed at 10 ppm [2]: <50% | % MORTALITY ([3]; RATE 80 (unit not given), 8640 min): 90%

CCC1CCCC(OC2CCC(N(C)C)C(C)O2)C(C)C(=O)C2=CC3C4CC(OC5OC(C)C(OC)C(OC)C5OC)CC4[C@H]4O[C@H]4C3C2CC(=O)O1 (stereo partly drawn) [Example F7a, (5S,6R)-5,6-Epoxy Spinosyn A]
Percentage of ASF killed at 10 ppm [1]: 100% | Percentage of LBF killed at 10 ppm [2]: 90% | % MORTALITY [4]: 90% | % MORTALITY ([3]; RATE 400 (ppm), 6 days): 100%

CC[C@H]1CCC[C@H](O[C@H]2CC[C@H](NC)[C@@H](C)O2)[C@@H](C)C(=O)C2=C[C@H]3[C@@H]4C[C@H](O[C@@H]5O[C@@H](C)[C@H](OC)[C@@H](OC)[C@H]5OC)C[C@H]4CC[C@H]3[C@@H]2CC(=O)O1 [Example F24, 5,6-Dihydro Spinosyn B]
Percentage of ASF killed at 100 ppm ([1]; 100 ppm in bovine serum): 100% | % MORTALITY [4]: 100% | % MORTALITY ([3]; RATE 400 (ppm), 6 days): 100%

CCC1CCCC(O)C(C)C(=O)C2=CC3C4CC(OC5OC(C)C(OC)C(OC)C5OC)CC4C4OC4C3C2CC(=O)O1 [Example E3, (5S,6R)-5,6-Epoxy Spinosyn A 17-Psa]
% MORTALITY [6]: 100%

CC[C@H]1CCC[C@H](O[C@H]2CC[C@H](N(C)C)[C@@H](C)O2)[C@@H](C)C(=O)C2=C[C@H]3[C@@H]4C[C@H](O[C@@H]5O[C@@H](C)[C@H](OC)[C@@H](OC)[C@H]5OC)C[C@H]4[C@@H](Br)[C@H](OC(C)=O)[C@H]3[C@@H]2CC(=O)O1 [Example F4b, (5R,6R)-5-Acetoxy-6-bromo-5,6-dihydro Spinosyn A]
Percentage of ASF killed at 10 ppm [1]: 60% | Percentage of LBF killed at 10 ppm [2]: < 50% | mortality at 400 µg/mL ([3]; RATE 400 (ppm), 6 days): 100%
